# System: test plant species
# Assay: Post-emergent herbicidal activity test (greenhouse, foliar spray, visual growth reduction)
# Assay type: in vivo
# Settings: post-emergence, 336 h, ALOMY: blackgrass (Alopecurus myosuroides), 140 g ai/ha, 14 days after application, read-out: Visual Growth Reduction (%) 14 Days After Application, ALOMY
# Procedure: Post-emergent Test: Seeds or nutlets of the desired test plant species were planted in Sun Gro Metro-Mix® 360 planting mixture, which typically has a pH of 6.0 to 6.8 and an organic matter content of about 30 percent, in plastic pots with a surface area of 64 square centimeters. In some aspects, to ensure good germination and healthy plants, a fungicide treatment and/or other chemical or physical treatment was applied. The plants were grown for 7-21 d in a greenhouse with an approximate 15 h photoperiod which was maintained at 23-29° C. during the day and 22-28° C. during the night. Nutrients and water were added on a regular basis and supplemental lighting was provided with overhead metal halide 1000-Watt lamps as necessary. Plants were used for testing when they reached the first or second true leaf stage. A weighed amount, determined by the highest rate to be tested, of each test compound was placed in a 25 mL glass vial and was dissolved in 4 mL of a 97:3 v/v mixture of acetone and DMSO to obtain concentrated stock solutions. […] The concentrated stock solutions obtained were diluted with 20 mL of an aqueous mixture containing acetone, water, isopropyl alcohol, DMSO, […] crop oil concentrate, and X-77 surfactant in a 48.5:39:10:1.5:1.0:0.02 v/v ratio to obtain spray solutions containing the application rate. Compound requirements are based upon a 12 mL application volume at a rate of 187 liters per hectare (L/ha). Formulated compounds were applied to the plant material with an overhead Mandel track sprayer equipped with […] nozzles calibrated to deliver 187 L/ha over an application area of 0.64 square meters at a spray height of 18 inches (43 cm) above the average plant canopy height. Control plants were sprayed in the same manner with the solvent blank. The treated plants and control plants were placed in a greenhouse as described above and watered by subirrigation to prevent wash-off of the test compounds. After 14 d, the condition of the test plants as compared with that of the nontreated and control plants was determined visually and scored on a scale of 0 to 100 percent where 0 corresponds to no injury and 100 corresponds to complete control. In the reporting of the results, Table A: Percent Growth Reduction Conversion Table was used.
row,SMILES,pest or weed control at 140 g/ha
1,"COC(=O)c1nc(-c2cc3c(cc2F)OC(F)(F)O3)c(Cl)cc1Cl [F174, Methyl 3,5-dichloro-6-(2,2,6-trifluorobenzo[d] [1,3]dioxol-5-yl)picolinate]",0 to 29%

# Same assay, conditions: post-emergence, 336 h, AMARE: redroot pigweed (Amaranthus retroflexus), 140 g ai/ha, 14 days after application, read-out: Visual Growth Reduction (%) 14 Days After Application, AMARE
row,SMILES,pest or weed control at 140 g/ha
1,"COC(=O)c1nc(-c2cc3c(cc2F)OC(F)(F)O3)c(Cl)cc1Cl [F174, Methyl 3,5-dichloro-6-(2,2,6-trifluorobenzo[d] [1,3]dioxol-5-yl)picolinate]",85 to 94%

# Same assay, conditions: post-emergence, 336 h, AVEFA: wild oat (Avena fatua), 140 g ai/ha, 14 days after application, read-out: Visual Growth Reduction (%) 14 Days After Application, AVEFA
row,SMILES,pest or weed control at 140 g/ha
1,"COC(=O)c1nc(-c2cc3c(cc2F)OC(F)(F)O3)c(Cl)cc1Cl [F174, Methyl 3,5-dichloro-6-(2,2,6-trifluorobenzo[d] [1,3]dioxol-5-yl)picolinate]",0 to 29%

# Same assay, conditions: post-emergence, 336 h, CHEAL: lambsquarters (Chenopodium album), 140 g ai/ha, 14 days after application, read-out: Visual Growth Reduction (%) 14 Days After Application, CHEAL
row,SMILES,pest or weed control at 140 g/ha
1,"COC(=O)c1nc(-c2cc3c(cc2F)OC(F)(F)O3)c(Cl)cc1Cl [F174, Methyl 3,5-dichloro-6-(2,2,6-trifluorobenzo[d] [1,3]dioxol-5-yl)picolinate]",85 to 94%

# Same assay, conditions: post-emergence, 336 h, CIRAR: canada thistle (Cirsium arvense), 140 g ai/ha, 14 days after application, read-out: Visual Growth Reduction (%) 14 Days After Application, CIRAR
row,SMILES,pest or weed control at 140 g/ha
1,"COC(=O)c1nc(-c2cc3c(cc2F)OC(F)(F)O3)c(Cl)cc1Cl [F174, Methyl 3,5-dichloro-6-(2,2,6-trifluorobenzo[d] [1,3]dioxol-5-yl)picolinate]",0 to 29%

# Same assay, conditions: post-emergence, 336 h, CYPES: yellow nutsedge (Cyperus esculentus), 140 g ai/ha, 14 days after application, read-out: Visual Growth Reduction (%) 14 Days After Application, CYPES
row,SMILES,pest or weed control at 140 g/ha
1,"COC(=O)c1nc(-c2cc3c(cc2F)OC(F)(F)O3)c(Cl)cc1Cl [F174, Methyl 3,5-dichloro-6-(2,2,6-trifluorobenzo[d] [1,3]dioxol-5-yl)picolinate]",0 to 29%

# Same assay, conditions: post-emergence, 336 h, DIGSA: crabgrass (Digitaria sanguinalis), 140 g ai/ha, 14 days after application, read-out: Visual Growth Reduction (%) 14 Days After Application, DIGSA
row,SMILES,pest or weed control at 140 g/ha
1,"COC(=O)c1nc(-c2cc3c(cc2F)OC(F)(F)O3)c(Cl)cc1Cl [F174, Methyl 3,5-dichloro-6-(2,2,6-trifluorobenzo[d] [1,3]dioxol-5-yl)picolinate]",85 to 94%

# Same assay, conditions: post-emergence, 336 h, ECHCG: barnyardgrass (Echinochloa crus-galli), 140 g ai/ha, 14 days after application, read-out: Visual Growth Reduction (%) 14 Days After Application, ECHCG
row,SMILES,pest or weed control at 140 g/ha
1,"COC(=O)c1nc(-c2cc3c(cc2F)OC(F)(F)O3)c(Cl)cc1Cl [F174, Methyl 3,5-dichloro-6-(2,2,6-trifluorobenzo[d] [1,3]dioxol-5-yl)picolinate]",0 to 29%

# Same assay, conditions: post-emergence, 336 h, IPOHE: ivy-leaf morning glory (Ipomoea hederacea), 140 g ai/ha, 14 days after application, read-out: Visual Growth Reduction (%) 14 Days After Application, IPOHE
row,SMILES,pest or weed control at 140 g/ha
1,"COC(=O)c1nc(-c2cc3c(cc2F)OC(F)(F)O3)c(Cl)cc1Cl [F174, Methyl 3,5-dichloro-6-(2,2,6-trifluorobenzo[d] [1,3]dioxol-5-yl)picolinate]",95 to 100%

# Same assay, conditions: post-emergence, 336 h, KCHSC: kochia (Bassia scoparia), 140 g ai/ha, 14 days after application, read-out: Visual Growth Reduction (%) 14 Days After Application, KCHSC
row,SMILES,pest or weed control at 140 g/ha
1,"COC(=O)c1nc(-c2cc3c(cc2F)OC(F)(F)O3)c(Cl)cc1Cl [F174, Methyl 3,5-dichloro-6-(2,2,6-trifluorobenzo[d] [1,3]dioxol-5-yl)picolinate]",0 to 29%

# Same assay, conditions: post-emergence, 336 h, ORYSA: rice (Oryza sativa), 140 g ai/ha, 14 days after application, read-out: Visual Growth Reduction (%) 14 Days After Application, ORYSA
row,SMILES,pest or weed control at 140 g/ha
1,"COC(=O)c1nc(-c2cc3c(cc2F)OC(F)(F)O3)c(Cl)cc1Cl [F174, Methyl 3,5-dichloro-6-(2,2,6-trifluorobenzo[d] [1,3]dioxol-5-yl)picolinate]",0 to 29%

# Same assay, conditions: post-emergence, 336 h, SETFA: giant foxtail (Setaria faberi), 140 g ai/ha, 14 days after application, read-out: Visual Growth Reduction (%) 14 Days After Application, SETFA
row,SMILES,pest or weed control at 140 g/ha
1,"COC(=O)c1nc(-c2cc3c(cc2F)OC(F)(F)O3)c(Cl)cc1Cl [F174, Methyl 3,5-dichloro-6-(2,2,6-trifluorobenzo[d] [1,3]dioxol-5-yl)picolinate]",30 to 44%

# Same assay, conditions: post-emergence, 336 h, SORVU: grain sorghum (Sorghum vulgare), 140 g ai/ha, 14 days after application, read-out: Visual Growth Reduction (%) 14 Days After Application, SORVU
row,SMILES,pest or weed control at 140 g/ha
1,"COC(=O)c1nc(-c2cc3c(cc2F)OC(F)(F)O3)c(Cl)cc1Cl [F174, Methyl 3,5-dichloro-6-(2,2,6-trifluorobenzo[d] [1,3]dioxol-5-yl)picolinate]",85 to 94%

# Same assay, conditions: post-emergence, 336 h, STEME: common chickweed (Stellaria media), 140 g ai/ha, 14 days after application, read-out: Visual Growth Reduction (%) 14 Days After Application, STEME
row,SMILES,pest or weed control at 140 g/ha
1,"COC(=O)c1nc(-c2cc3c(cc2F)OC(F)(F)O3)c(Cl)cc1Cl [F174, Methyl 3,5-dichloro-6-(2,2,6-trifluorobenzo[d] [1,3]dioxol-5-yl)picolinate]",0 to 29%

# Same assay, conditions: post-emergence, 336 h, TRZAS: wheat, spring (Triticum aestivum), 140 g ai/ha, 14 days after application, read-out: Visual Growth Reduction (%) 14 Days After Application, TRZAS
row,SMILES,pest or weed control at 140 g/ha
1,"COC(=O)c1nc(-c2cc3c(cc2F)OC(F)(F)O3)c(Cl)cc1Cl [F174, Methyl 3,5-dichloro-6-(2,2,6-trifluorobenzo[d] [1,3]dioxol-5-yl)picolinate]",0 to 29%
